Target: T1, hRpn13_ΔMTT (Homo sapiens, UniProt Q16186)
T1 construct: recombinant plasmid of hRpn13 Pru (1–150) cloned into the pRSET vector; GST (N, cleaved yes); residual Gly-Ser (^cG-^dS) left after cleavage; made in house; host or cells: Escherichia coli BL21 (DE3); pGEX-4T-1 plasmid synthesized by GenScript (Addgene 237412)
Test: 1H-15N HSQC NMR titration / chemical shift perturbation (CSP), 0.1 mM 15N-labeled hRpn13_ΔMTT with unlabeled peptide
Format: binding
Conditions: 20-fold molar excess peptide
Procedure: The similar spectral effects by adding ENT or ENT_M1S is readily apparent by quantifying and plotting the shifting across the Pru amino acid sequence (Supplementary Fig. 10b, c).
All ^1H-^15N HSQC experiments were acquired on samples dissolved in NMR buffer (20 mM sodium phosphate, pH 6.5, 50 mM NaCl, 1 mM TCEP, 10% D2O) unless specified, in which case 2 mM DTT replaced TCEP. The samples were purified in DTT-containing buffer and then exchanged into NMR buffer by using Zeba Protein Desalting columns (Thermo Fisher Scientific). The pH was measured and adjusted to 6.5. All NMR experiments were performed at 25 °C on a Bruker Advance 600 MHz spectrometer equipped with a cryogenically cooled probe. The data were processed by NMRpipe[46] (version 11.5) and spectra visualized and analyzed with NMR-FAM-SPARKY[47] (version 3.190) by using previous chemical shift assignments[12],[23] and NMRbox[48]. The amide nitrogen and hydrogen chemical shift perturbations (CSP) were mapped for each amino acid according to Eq. 1.1 CSP=0.2ΔδN2+ΔδH2
ΔδH, change in amide proton value (in parts per million); ΔδN, change in amide nitrogen value (in parts per million).
Supplementary Figure 9: 2D NMR experiments indicate ENT binding to hRpn13 Pru. a) ^1H-^15N HSQC spectrum of 0.1 mM ^15N-labeled hRpn13 (1-150, black) or hRpn13_ΔMTT (green). Select residues are labeled with amino acids in the Pru helix, proteasome binding region, and termini in blue, purple, and orange, respectively. Arrows indicate direction of shifting. b, c) ^1H-^15N HSQC spectra of 0.1 mM of ^15N-labeled hRpn13_ΔMTT alone (black) or with ENT present at equimolar (red), 2-fold (orange), 5-fold (yellow), 10-fold (green), 15-fold (blue), or 20-fold (purple) molar excess. […] All spectra were acquired at 600 MHz and 25°C in 20 mM sodium phosphate, pH 6.5, 100 mM NaCl, 1 mM TCEP, 10% D2O. ppm, part per million.

T1 sequence (Q16186 4-150, stated change not applied): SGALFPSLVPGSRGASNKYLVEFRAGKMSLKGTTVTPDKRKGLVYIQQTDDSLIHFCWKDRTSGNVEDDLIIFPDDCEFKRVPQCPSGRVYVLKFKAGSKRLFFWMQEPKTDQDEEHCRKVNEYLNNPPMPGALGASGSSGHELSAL

Substance: GPGSSTT [ENT_M1S, ENT M1 replaced with serine]
- CSP A6: 0.001673
- CSP A28: 0.004472
- CSP A100: 0.001095
- CSP A136: 0.001
- CSP A139: 0.001342
- CSP A149: 0.001342
- CSP C60: 0.004494
- CSP C80: 0.0004472
- CSP C88: 0.005727
- CSP C121: 0.01167
- CSP D41: 0.0008944
- CSP D53: 0.002049
- CSP D54: 0.003347
- CSP D63: 0.004919
- CSP D71: 0.004147
- CSP D72: 0.004583
- CSP D78: 0.00502
- CSP D79: 0.004472
- CSP D115: 0.005385
- CSP D117: 0.02256
- CSP E25: 0.004472
- CSP E70: 0.002683
- CSP E81: 0.003715
- CSP E111: 0.01001
- CSP E118: 0.03156
- CSP E119: 0.0177
- CSP E146: 0.005177
- CSP F8: 0.0004472
- CSP F26: 0.01613
- CSP F59: 0.004583
- CSP F76: 0.008012
- CSP F82: 0.002683
- CSP F98: 0.005459
- CSP F106: 0.003715
- CSP F107: 0.002049
- CSP G5: 0
- CSP G17: 0.002236
- CSP G29: 0.0008944
- CSP G45: 0.003715
- CSP G67: 0.005899
- CSP G91: 0.001673
- CSP G101: 0.001789
- CSP G135: 0.002049
- CSP G138: 0.002049
- CSP G141: 0.001789
- CSP G144: 0.0008944
- CSP H58: 0.00743
- CSP H120: 0.04026
- CSP H145: 0.04954
- CSP I49: 0.003286
- CSP I57: 0.003286
- CSP I75: 0
- CSP K21: 0.001095
- CSP K30: 0.007668
- CSP K34: 0.002049
- CSP K42: 0.002191
- CSP K62: 0.001789
- CSP K83: 0.00634
- CSP K97: 0.001
- CSP K99: 0.002049
- CSP K103: 0.001673
- CSP K113: 0.004472
- CSP K123: 0.00743
- CSP L7: 0.001
- CSP L11: 0.0008944
- CSP L23: 0.001095
- CSP L33: 0.002408
- CSP L46: 0.002049
- CSP L56: 0.004099
- CSP L73: 0.002049
- CSP L96: 0.0004472
- CSP L105: 0.001095
- CSP L128: 0.003131
- CSP L137: 0.001673
- CSP L147: 0.004494
- CSP L150: 0.001673
- CSP M31: 0
- CSP M109: 0.003286
- CSP M133: 0.002
- CSP N20: 0
- CSP N68: 0.001789
- CSP N125: 0.003347
- CSP N129: 0.003
- CSP N130: 0.002683
- CSP Q50: 0.001095
- CSP Q51: 0.001
- CSP Q87: 0.008295
- CSP R16: 0
- CSP R27: 0.008112
- CSP R43: 0.0008944
- CSP R64: 0.003
- CSP R84: 0
- CSP R92 backbone: 0.002449
- CSP R92 sidechain: 0.01312
- CSP R104: 0.004099
- CSP R122: 0.006768
- CSP S4: 0.003715
- CSP S10: 0.001
- CSP S15: 0.002236
- CSP S19: 0.002049
- CSP S32: 0.001095
- CSP S55: 0.001342
- CSP S66: 0.001
- CSP S102: 0.001342
- CSP S140: 0.001095
- CSP S142: 0.001342
- CSP S143: 0.002049
- CSP S148: 0.0004472
- CSP T36: 0.001342
- CSP T37: 0.002191
- CSP T39: 0.002683
- CSP T52: 0.001095
- CSP T65: 0.001342
- CSP T114: 0.01524
- CSP V12: 0.002049
- CSP V24: 0
- CSP V47: 0.002683
- CSP V69: 0.003715
- CSP V93: 0.006542
- CSP V95: 0.003131
- CSP V124: 0.007759
- CSP W61: 0.009165
- CSP W108: 0.004025
- CSP Y22: 0.001095
- CSP Y48: 0.002864
- CSP Y94: 0.002449
- CSP Y127: 0.004382

Source: PMC12218921, “An adaptive peptide-binding site in ubiquitin receptor hRpn13 revealed by structural studies” (Nature Communications, 2025)
